{
  "source": "patent US20230152324A1",
  "about": "“TUMOR-INTRINSIC NLRP3 INFLAMMASOME SIGNALING PATHWAY AS A GENETIC AND FUNCTIONAL BIOMARKER FOR IMMUNOTHERAPY RESPONSE” (Duke University, priority 2021, published 2023)",
  "test_system": "mice bearing BRAF^V600EPTEN^−/− melanomas",
  "assay": "Lung fibronectin expression (qrt-PCR, IHC) in BRAFV600EPTEN−/− melanoma-bearing mice",
  "type": "in vivo, mouse",
  "conditions": "anti-PD-1 vs anti-PD-1/Wnti treated tumor-bearing mice",
  "source_text": "Prior studies have shown that the arrival of […] (HPC) expressing vascular endothelial growth factor receptor-1 (VEGFR1) in the lung as well as increased fibronectin expression by local fibroblasts contribute to the formation of a pre-metastatic niche that subsequently supports metastatic progression (35). Using multi-parameter flow cytometry, we indeed observed an increase in a c-kit^+CD133^+CD34^+VEGFR1^+ HPC (VEGFR1^+ HPC) population in mice harboring BRAF^V600EPTEN^−/− melanomas relative to non-tumor-bearing controls. […]\nSmall representative tissue specimens were harvested from tumors and lungs and stored in RNAlater at −80° C. […] Total RNA was isolated by RNeasy Plus Mini Kit (Qiagen, 74134) and RNA was quantified by NanoDrop. […] All data were normalized to Actb expression and relative gene expression was quantitated based on the 2ΔΔCt method. Relative mRNA levels of the following genes were measured: Cxcl5, Cxcl1, Cxcl2, Trp2, Csf3, Il1b, Fn1, Tgfb, Tgfbr2, Spp1, and Hsp70.\nParaffin-Sections (5-μm) from primary melanomas and lung tissues were processed using standard protocols for immunohistochemistry (IHC) and immunofluorescence (IF) staining. […] PMN-MDSC quantitation by Ly6G-staining, and CD8^+ T cell quantitation by CD8a-staining were performed at 20× magnification and 6-8 random fields were averaged per section over 3-4 sections per specimen. […]",
  "data": [
    {"molecule": "Cn1c(=O)c2c(ncn2CC(=O)Nc2ccc(-c3ccccc3)nn2)n(C)c1=O", "note": "[ETC-159]", "values": [
      {"measurement": "tumor-dependent upregulation of fibronectin expression levels in the lungs", "result": "reversed"}
    ]}
  ]
}
